The source of these data is patent US9518022B2, “Anti-HIV compounds” (priority 2014, dated 2016).

The first series is described as follows: Cytotoxicity assay (AlamarBlue) in mock infected MT-2 cells. Format: cell-based. The note with it: human. The method, then: The present assay was used to screen candidate antiviral compounds by quantification of virus spread and production over several rounds of infection in vitro. MT-2, a HIV-1 permissive human T-cell line, was seeded in microtiter plates and was simultaneously treated with serially diluted compound and inoculated with a HIV-1 NL4-3 viral clone engineered to express Renilla luciferase in place of Nef. Following treatment, the culture was incubated for 96 hours. After the incubation, media was collected and used to estimate relative infectivity on the indicator cell line, TZM-bl. Additionally, viral spread was quantified by measuring luciferase activity via a commercially available luciferase substrate. In parallel, MT-2 cells were seeded and inoculated with mock virus in the presence of serially diluted compound. Compound toxicity was quantified 96 hours after treatment with AlamarBlue.
MT-2 (NIH Aids reagent program 237) cells were grown and maintained in an incubator at 37° C. with 5% CO2 using a basal medium of RPMI-1640 supplemented with 10% FBS. Cells were seeded in 100 μl at 2×10^4 cells/well in white walled 96-well microtiter plates. Candidate compounds were 3-fold serially diluted in the appropriate solvent. Solvent without compound was used as a no drug reference. Cells were inoculated at a multiplicity of 0.027 with an HIV-1 NL4-3 virus stock engineered to express Renilla luciferase in place of Nef. Diluted virus stock was first added to serially diluted compound. Compound and virus were delivered to cells in an equal volume (100 μl) and treated cultures were returned to the incubator for 96 hours. In parallel, plates for cytotoxicity estimates were prepared in the same way except cells were plated in clear walled 96-well microtiter plates and were mock infected.
At 96 hours post treatment, 20 μl AlamarBlue proliferation reagent was added to 200 μl treated and mock infected cultures and incubated for 3 hours at 37° C. with 5% CO2 then read at 545, 590 nm on fluorescence plate reader (Biotek).
For all assays, data was imported into Accelrys Assay Explorer 3.3. In Assay Explorer, % inhibition (antiviral or cytotoxicity) was calculated using the solvent control as a reference by the following equation: 1−(SignalCompound/SignalReference). The % Inhibition and compound concentration data was fitted using the following 4-parameter logistic model (Assay Explorer model 42):
[formula] where X is compound concentration, Y is % inhibition, D is the maximum % Inhibition (constrained to 100%), C is IC50 value or inflection point, B is the hill slope, and A is the minimum % inhibition (constrained to 0%). The IC50 value is reported as the EC50 or CC50 depending on the assay endpoint. EC50 represents the effective concentration at which virus replication is inhibited by 50 percent. CC50 represents the concentration that results in the death of 50 percent of the host cells. The selectivity or therapeutic index (SI or TI), is the ratio of CC50 over EC50 and represents the relative effectiveness in inhibiting viral replication compared to inducing cell death.
A general note: The colour change of resazurin is a common sign of viable cells or microbes.
Regarding `COc1ccc(/C=C/C2NCCc3cc(OCc4ccccc4)c(OC)cc32)cc1C` (stereo not drawn) [EI, 6-(benzyloxy)-7-methoxy-1-[(E)-2-(4-methoxy-3-methylphenyl)ethenyl]-1,2,3,4-tetrahydroisoquinoline], the CC50 (as a rule, the concentration at which the toxic effect on the cells reaches its halfway point) at 96 h amounted to 11.8 µM. Still for that read-out and setting: to `COc1ccc(/C=C/C2NCCc3cc(OCc4ccccc4)c(OC)cc32)c(F)c1` (stereo not drawn) [BR, 6-(benzyloxy)-1-[(E)-2-(2-fluoro-4-methoxyphenyl)ethenyl]-7-methoxy-1,2,3,4-tetrahydroisoquinoline] belongs 10 µM; to `COc1cc2c(cc1OCc1ccccc1)CCNC2/C=C/c1ccccc1C(=O)O` (stereo not drawn) [ES, 2-[(E)-2-[6-(benzyloxy)-7-methoxy-1,2,3,4-tetrahydroisoquinolin-1-yl]ethenyl]benzoic acid], 10 µM. The compound `COc1ccc(/C=C/C2NCCc3cc(OCc4ccccc4)c(OC)cc32)c(OC)c1` (stereo not drawn) [AV, 6-(benzyloxy)-1-[(E)-2-(2,4-dimethoxyphenyl)ethenyl]-7-methoxy-1,2,3,4-tetrahydroisoquinoline] showed a 50% cytotoxic concentration (CC50) at 96 h of 5.5 µM. The same measure, in the same setting: to `COc1cc2c(cc1OCc1ccccc1)CCNC2/C=C/c1ccc(C(=O)O)cc1` (stereo not drawn) [EQ, 4-[(E)-2-[6-(benzyloxy)-7-methoxy-1,2,3,4-tetrahydroisoquinolin-1-yl]ethenyl]benzoic acid] belongs 10 µM; to `COc1cc2c(cc1OCc1ccccc1)CCNC2/C=C/c1ccc(OC)c(C)c1C` (stereo not drawn) [EL, 6-(benzyloxy)-7-methoxy-1-[(E)-2-(4-methoxy-2,3-dimethylphenyl)ethenyl]-1,2,3,4-tetrahydroisoquinoline], 3.25 µM; to `COc1cc(OC)c(/C=C/C2NCCc3cc(OCc4ccccc4)c(OC)cc32)cc1C` (stereo not drawn) [EH, 6-(benzyloxy)-1-[(E)-2-(2,4-dimethoxy-5-methylphenyl)ethenyl]-7-methoxy-1,2,3,4-tetrahydroisoquinoline], 3.59 µM. On the same count and under the same terms, to `COc1cc2c(cc1OCc1ccccc1)CCNC2/C=C/c1ccc2cccnc2c1` (stereo not drawn) [DL, 7-[(E)-2-[6-(benzyloxy)-7-methoxy-1,2,3,4-tetrahydroisoquinolin-1-yl]ethenyl]quinoline] belongs 7 µM. On the same count and under the same terms, to `COc1cc2c(cc1OCc1ccccc1)CCNC2/C=C/c1scnc1C` (stereo not drawn) [DY, 6-(benzyloxy)-7-methoxy-1-[(E)-2-(4-methyl-1,3-thiazol-5-yl)ethenyl]-1,2,3,4-tetrahydroisoquinoline] belongs 21.6 µM.

For `COc1cc2c(cc1OCc1ccccc1)CCNC2/C=C/c1ccc(OC)c2occc12` (stereo not drawn) [Example AN, 6-Benzyloxy-7-methoxy-1-[(E)-2-(7-methoxybenzofuran-4-yl)vinyl]-1,2,3,4-tetrahydroisoquinoline], the CC50 at 96 h is 3.7 µM.

As to `COc1ccc(/C=C/C2NCCc3cc(OCc4ccccc4)c(OC)cc32)cc1` (stereo not drawn) [BJ, 6-(benzyloxy)-7-methoxy-1-[(E)-2-(4-methoxyphenyl)ethenyl]-1,2,3,4-tetrahydroisoquinoline], the CC50 at 96 h came out at 20.9 µM. Same read-out and setting: the same measure for `COc1cc2c(cc1OCc1ccccc1)CCNC2/C=C/c1cc(OCC2CCNCC2)c(OC)cc1C` (stereo not drawn) [BY, 6-(benzyloxy)-7-methoxy-1-[(E)-2-[4-methoxy-2-methyl-5-(piperidin-4-ylmethoxy)phenyl]ethenyl]-1,2,3,4-tetrahydroisoquinoline]: 1.97 µM; for `COc1cc(C(C)(C)C)c(/C=C/C2NCCc3cc(OCc4ccccc4)c(OC)cc32)cc1OCc1ccccc1` (stereo not drawn) [Example J, 6-Benzyloxy-1-[(E)-2-(5-benzyloxy-2-tert-butyl-4-methoxy-phenyl)vinyl]-7-methoxy-1,2,3,4-tetrahydroisoquinoline]: 5.36 µM; for `COc1cc2c(cc1OCc1ccccc1)CCNC2/C=C/c1c[nH]c2ccccc12` (stereo not drawn) [CJ, 6-(benzyloxy)-1-[(E)-2-(1H-indol-3-yl)ethenyl]-7-methoxy-1,2,3,4-tetrahydroisoquinoline]: 6.55 µM. Still for that read-out and setting: the same measure for `COc1cc2c(cc1OCc1ccccc1)CCNC2/C=C/c1ccc(OC)c(C(F)(F)F)c1` (stereo not drawn) [CY, 6-(benzyloxy)-7-methoxy-1-[(E)-2-[4-methoxy-3-(trifluoromethyl)phenyl]ethenyl]-1,2,3,4-tetrahydroisoquinoline]: 4 µM; for `COc1cc2c(cc1OCc1ccccc1)CCNC2/C=C/c1ccccc1N1CCCCC1` (stereo not drawn) [DX, 6-(benzyloxy)-7-methoxy-1-[(E)-2-[2-(piperidin-1-yl)phenyl]ethenyl]-1,2,3,4-tetrahydroisoquinoline]: 5.38 µM; for `COc1cc2c(cc1OCc1ccccc1)CCNC2/C=C/c1ccnn1C` (stereo not drawn) [Example AK, 6-benzyloxy-7-methoxy-1-[(E)-2-(2-methylpyrazol-3-yl)vinyl]-1,2,3,4-tetrahydroisoquinoline]: 10 µM. The compound `COc1cc2c(cc1OCc1ccccc1)CCNC2/C=C/c1nccs1` (stereo not drawn) [DV, 6-(benzyloxy)-7-methoxy-1-[(E)-2-(1,3-thiazol-2-yl)ethenyl]-1,2,3,4-tetrahydroisoquinoline] displayed a CC50 at 96 h of 21.8 µM. The same measure, in the same setting: to `COc1ccc(/C=C/C2NCCc3cc(OCc4ccccc4)c(OC)cc32)cc1COCC(F)(F)F` (stereo not drawn) [EO, 6-(benzyloxy)-7-methoxy-1-[(E)-2-{4-methoxy-3-[(2,2,2-trifluoroethoxy)methyl]phenyl}ethenyl]-1,2,3,4-tetrahydroisoquinoline] belongs 1.94 µM. The same measure, in the same setting: to `COc1cc2c(cc1OCc1ccccc1)CCNC2/C=C/c1ccc(N(C)C)cc1C` (stereo not drawn) [BG, 4-[(E)-2-[6-(benzyloxy)-7-methoxy-1,2,3,4-tetrahydroisoquinolin-1-yl]ethenyl]-N,N,3-trimethylaniline] belongs 4.44 µM; to `COc1cc2c(cc1OCc1ccccc1)CCNC2/C=C/c1cscn1` (stereo not drawn) [DR, 6-(benzyloxy)-7-methoxy-1-[(E)-2-(1,3-thiazol-4-yl)ethenyl]-1,2,3,4-tetrahydroisoquinoline], 25.4 µM; to `COc1ccc(/C=C/C2c3cc(OC)c(OCc4ccccc4)cc3CCN2C)cc1OCc1ccccc1` (stereo not drawn) [Example V, 6-benzyloxy-1-[(E)-2-(3-benzyloxy-4-methoxy-phenyl)vinyl]-7-methoxy-2-methyl-3,4-dihydro-1H-isoquinoline], 6.68 µM. The same measure, in the same setting: to `COc1cc2occc2cc1/C=C/C1NCCc2cc(OCc3ccccc3)c(OC)cc21` (stereo not drawn) [EB, 6-(benzyloxy)-7-methoxy-1-[(E)-2-(6-methoxy-1-benzofuran-5-yl)ethenyl]-1,2,3,4-tetrahydroisoquinoline] belongs 6 µM; to `COc1cc(C)c(/C=C/C2NCCc3cc(OCc4ccccc4)c(OC)cc32)c(C)c1` (stereo not drawn) [BA, 6-(benzyloxy)-7-methoxy-1-[(E)-2-(4-methoxy-2,6-dimethylphenyl)ethenyl]-1,2,3,4-tetrahydroisoquinoline], 3.33 µM.

The series is the same for the next values; noted with them: human; mock infected MT-2 cells, 96 hours, AlamarBlue; read-out: CC50.
As for `COc1ccc(OC)c(/C=C/C2NCCc3cc(OCc4ccccc4)c(OC)cc32)c1` (stereo not drawn) [EK, 6-(benzyloxy)-1-[(E)-2-(2,5-dimethoxyphenyl)ethenyl]-7-methoxy-1,2,3,4-tetrahydroisoquinoline], the CC50 at 96 h is 3.6 µM. On to `COc1cc(C)c(/C=C/C2c3cc(OC)c(OCc4ccccc4)cc3CCN2C(N)=O)cc1OCc1ccccc1` (stereo not drawn) [Example R, 6-benzyloxy-1-[(E)-2-(5-benzyloxy-4-methoxy-2-methyl-phenyl)vinyl]-7-methoxy-3,4-dihydro-1H-isoquinoline-2-carboxamide], for which the CC50 at 96 h was determined as 39.3 µM. Still for that read-out and setting: the same measure for `COc1cccc(/C=C/C2NCCc3cc(OCc4ccccc4)c(OC)cc32)c1` (stereo not drawn) [EJ, 6-(benzyloxy)-7-methoxy-1-[(E)-2-(3-methoxyphenyl)ethenyl]-1,2,3,4-tetrahydroisoquinoline]: 10 µM; for `COc1cc2c(cc1OCc1ccccc1)CCNC2/C=C/c1ccccc1C` (stereo not drawn) [Example W, 6-benzyloxy-7-methoxy-1-[(E)-2-(o-tolyl)vinyl]-1,2,3,4-tetrahydroisoquinoline]: 4 µM; for `COc1ccc(/C=C/C2NCCc3cc(OCc4ccccc4)c(OC)cc32)cc1OCc1ccccc1` (stereo not drawn) [Example AB, 6-benzyloxy-1-[(E)-2-(3-benzyloxy-4-methoxy-phenyl)vinyl]-7-methoxy-1,2,3,4-tetrahydroisoquinoline]: 3.96 µM. Still for that read-out and setting: to `COc1ccc(/C=C/C2NCCc3cc(OCc4ccccc4)c(OC)cc32)cc1Br` (stereo not drawn) [AR, 6-(benzyloxy)-1-[(E)-2-(3-bromo-4-methoxyphenyl)ethenyl]-7-methoxy-1,2,3,4-tetrahydroisoquinoline] belongs 6.2 µM.
